According to publication PMC12118337, “Development of a Peptide Inhibitor Targeting the C‐SH2 Domain of the SHP2 Phosphatase” (Chembiochem, 2025):
Residues, ends and D or L forms follow the SMILES beside them. *: point of attachment. 5FAM = O=C1OC2(c3ccc(O)cc3Oc3cc(O)ccc32)c2ccc(C(=O)*)cc21; X1 = O=C(O)C(C(=O)O)*

Target: T1, SHP2 N‐SH2 domain (Homo sapiens, UniProt Q06124)
T1 construct: SHP2 N-SH2 domain (1–105), C-SH2 domain (106–220), PTP domain (224–541) and; His6 (pETM22 vector) (N, cleaved yes); made in house; host or cells: E. coli BL21(DE3)
T1 sequence (Q06124 1-105): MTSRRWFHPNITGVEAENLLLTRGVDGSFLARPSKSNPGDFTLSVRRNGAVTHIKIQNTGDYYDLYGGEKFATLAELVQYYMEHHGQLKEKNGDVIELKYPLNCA
Experiment: Fluorescence polarization (FP) binding assay, SHP2 N-SH2 domain
Conditions: 100 nM FAM-labelled peptide, increasing N-SH2 protein, 50 mM HEPES pH 7.5, 150 mM NaCl, 1 mM EDTA, 0.05% Tween 20, FP at 10 min, three independent experiments in technical triplicates, read-out: K D ± SEM, N‐SH2 (FP)

- Kd: > 32 µM
Compound: CC[C@H](C)[C@H](NC(=O)[C@@H](NC(=O)[C@H](C)NC(=O)[C@H](Cc1ccc(OC(C(=O)O)C(=O)O)cc1)NC(=O)[C@H](CCC(=O)O)NC(=O)[C@@H](NC(=O)[C@H](CCC(N)=O)NC(=O)c1ccc2c(c1)C(=O)OC21c2ccc(O)cc2Oc2cc(O)ccc21)[C@@H](C)O)[C@@H](C)O)C(=O)N[C@@H](CCCCN)C(=O)N[C@@H](Cc1c[nH]cn1)C(=O)N1CCC[C@H]1C(N)=O [peptide 26] (5FAM-QTEY(X1)ATIKHP-NH2)
